The target in the assay is presenilin-1 (Homo sapiens, UniProt P49768). The assay is classed as biochemical.

As usually defined, the IC50 is the concentration needed to halve the response being measured. Turning to `CC(C)C[C@H](NC(=O)[C@H](Cc1ccccc1)C[C@@H](O)[C@H](Cc1ccc(C(=O)c2ccccc2)cc1)NC(=O)OC(C)(C)C)C(=O)N[C@@H](Cc1ccccc1)C(=O)NCCCCCNC(=O)CCCC[C@@H]1SC[C@@H]2NC(=O)N[C@@H]21` [compound 3], the IC50 turned out to be 0.6 nM.

Source of the values: article PMC3254698 (Bioorganic & medicinal chemistry letters, 2008).
